From a compilation of properties of binary mixtures (doi:10.1016/j.molliq.2015.08.019)

Experiment: xn = mol fraction of the nth substance listed
Settings: 100 kPa

CCCC[n+]1ccn(C)c1.F[B-](F)(F)F + CN1CCCC1=O
speed of sound [m/s]
Settings | x2 = 0.108 | x2 = 0.2114 | x2 = 0.3061 | x2 = 0.4422 | x2 = 0.5097 | x2 = 0.6155 | x2 = 0.7054 | x2 = 0.8025 | x2 = 0.9025
298.15 K | – | – | – | 1562.8 | 1562 | 1561.2 | – | 1559.1 | 1554.8
303.15 K | 1552.4 | 1552.2 | 1551.5 | 1549.9 | 1548.1 | – | 1544.1 | – | 1536.3
308.15 K | – | 1539.8 | – | 1536.6 | 1534.6 | 1531.5 | – | 1524.7 | 1518
313.15 K | 1528.3 | – | – | 1522.7 | 1520.8 | – | – | 1507 | –
318.15 K | 1516.4 | – | 1512.8 | 1510.1 | 1506.8 | 1501.7 | 1496.4 | 1490.4 | 1482.5
323.15 K | – | 1502.8 | 1499.9 | 1496.7 | 1492.4 | 1486.5 | 1480.7 | 1473.2 | 1464.1

CN1CCCC1=O + CCCC[n+]1ccn(C)c1.F[B-](F)(F)F
x1 = 1
Settings | speed of sound [m/s]
298.15 K | 1543.8
303.15 K | 1524.3
308.15 K | 1505
313.15 K | 1485.7
318.15 K | 1466.7
